In EP1508617B1, “Method for stabilizing an alanine aminotransferase and the corresponding compositions” (SYSMEX CORPORATION, priority 1998, dated 1999):
Read-outs that look alike come from different tables or passages of the source.

Target: T1, ALT (Homo sapiens, UniProt P24298)
T1 construct: purchased ASAHI CHEMICAL INDUSTRIES CO., LTD; T-71
T1 sequence (P24298 1-496): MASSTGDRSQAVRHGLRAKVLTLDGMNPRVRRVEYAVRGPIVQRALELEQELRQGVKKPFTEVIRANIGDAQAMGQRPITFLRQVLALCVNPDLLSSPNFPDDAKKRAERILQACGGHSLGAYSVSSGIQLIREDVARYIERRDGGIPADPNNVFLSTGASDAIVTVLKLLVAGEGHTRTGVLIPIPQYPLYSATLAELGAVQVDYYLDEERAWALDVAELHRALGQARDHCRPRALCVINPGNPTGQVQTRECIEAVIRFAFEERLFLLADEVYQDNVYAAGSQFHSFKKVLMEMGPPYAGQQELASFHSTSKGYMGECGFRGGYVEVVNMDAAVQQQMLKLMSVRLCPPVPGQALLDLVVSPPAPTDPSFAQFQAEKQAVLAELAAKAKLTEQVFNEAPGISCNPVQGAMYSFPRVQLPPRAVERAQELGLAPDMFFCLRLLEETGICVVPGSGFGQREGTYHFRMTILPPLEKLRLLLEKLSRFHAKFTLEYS
Assay: Stabilization effect of amino acids on ALT in control substance (residual activity after storage)
Format: biochemical
Details: for activity at 10000 µM: 96 h; for remaining activity at 1000 µM: tyrosine 1 mmol/L; for remaining activity at 5000 µM: valine 5 mmol/L; for remaining activity at 20000 µM: valine 20 mmol/L; for remaining activity at 50000 µM: valine 50 mmol/L; for remaining activity at 100000 µM: valine 100 mmol/L
Procedure: Using a human serum base and a BSA base as a medium, control substances were prepared respectively by adding, as a stabilizer, no amino acid, valine (10 mmol/L) as amino acid, proline (10 mmol/L) or other amino acid (10 mmol/L, provided that 1 mmol/L in case of tyrosine) to the respective mediums and then adding, as an enzyme, ALT (about 100 U/L).
The respective control substances thus obtained were stored at 45°C for four days and the residual activity of ALT contained in the respective control substances was measured.
CO., LTD. (manufacturing No. T-71). Furthermore, the human serum base used herein is a human serum base prepared by previously subjecting human serum to a heat treatment at 56°C for four hours thereby to devitalize an endogenous enzyme, followed by sterilization by filtration using a membrane filter of 0.2 µm in a pore diameter. The BSA base used herein is BES buffer (20 mmol/L) containing 3W/V% BSA.
With regard to the residual activity of ALT, the residual activity of ALT was measured by using an ALT reagent L "KOKUSAI" manufactured by INTERNATIONAL REAGENTS CORPORATION.
Valine and r-ALT were added to a human serum base and a BSA base in the concentration of about 100 U/L and, after storage at 45°C for four days, the residual activity was measured.

[1] = BSA base, amino acid 10 mmol/L, r-ALT about 100 U/L, stored at 45°C for four days (Example 1), read-out: Residual activity (%) of ALT
[2] = Human serum base, amino acid 10 mmol/L, r-ALT about 100 U/L, stored at 45°C for four days (Example 1), read-out: Residual activity (%) of ALT
[3] = read-out: Residual activity (%) of ALT, BSA base, amino acid 10 mmol/L, r-ALT about 100 U/L, stored at 45°C for four days (Example 1)
[4] = read-out: Residual activity (%) of ALT, Human serum base, amino acid 10 mmol/L, r-ALT about 100 U/L, stored at 45°C for four days (Example 1)
[5] = BSA base, valine 0.5 mmol/L, 45°C for four days (Example 2)
[6] = BSA base, 45°C for four days (Example 2)
[7] = Human serum base, 45°C for four days (Example 2)

SMILES | activity at 10000 µM [1] | activity at 10000 µM [2] | further results
C[C@H](N)C(=O)O [Alanine] | 28% | 15% | 
N=C(N)NCCC[C@H](N)C(=O)O [Arginine] |  |  | activity at 10000 µM [3]: 30%; activity at 10000 µM [4]: 18%
NC(=O)C[C@H](N)C(=O)O [Asparagine] | 25% | 14% | 
N[C@@H](CC(=O)O)C(=O)O [Aspartic acid] |  |  | remaining activity at 10000 µM [1]: 23%; remaining activity at 10000 µM [2]: 13%
N[C@@H](CS)C(=O)O [Cysteine] | 24% | 14% | 
N[C@@H](CCC(=O)O)C(=O)O [Glutamic acid] |  |  | remaining activity at 10000 µM [3]: 28%; remaining activity at 10000 µM [4]: 15%
NC(=O)CC[C@H](N)C(=O)O [Glutamine] | 15% | 17% | 
NCC(=O)O [Glycine] | 30% | 19% | 
N[C@@H](Cc1c[nH]cn1)C(=O)O [Histidine] | 28% | 15% | 
CC[C@H](C)[C@H](N)C(=O)O [Isoleucine] | 28% | 18% | 
CC(C)C[C@H](N)C(=O)O [Leucine] | 28% | 20% | 
NCCCC[C@H](N)C(=O)O [Lysine] | 31% | 20% | 
CSCC[C@H](N)C(=O)O [Methionine] | 31% | 20% | 
N[C@@H](CO)C(=O)O [Serine] | 32% | 19% | 
C[C@@H](O)[C@H](N)C(=O)O [Threonine] | 31% | 18% | 
N[C@@H](Cc1c[nH]c2ccccc12)C(=O)O [Tryptophane] | 30% | 18% | 
N[C@@H](Cc1ccc(O)cc1)C(=O)O [Tyrosine] |  |  | remaining activity at 1000 µM (BSA base, r-ALT about 100 U/L, stored at 45°C for four days (Example 1)): 31%; remaining activity at 1000 µM (Human serum base, r-ALT about 100 U/L, stored at 45°C for four days (Example 1)): 18%
CC(C)[C@H](N)C(=O)O [Valine] | 62% | 55% | Residual activity (%) of ALT [5]: 36%; remaining activity at 500 µM [5]: 38%; remaining activity at 5000 µM [6]: 46%; remaining activity at 10000 µM (BSA base, valine 10 mmol/L, 45°C for four days (Example 2), read-out: Residual activity (%) of ALT): 62%; remaining activity at 20000 µM [6]: 65%; remaining activity at 50000 µM [6]: 64%; remaining activity at 100000 µM [6]: 65%; remaining activity at 500 µM (Human serum base, valine 0.5 mmol/L, 45°C for four days (Example 2)): 28%; remaining activity at 5000 µM [7]: 33%; remaining activity at 10000 µM (Human serum base, valine 10 mmol/L, 45°C for four days (Example 2), read-out: Residual activity (%) of ALT): 55%; remaining activity at 20000 µM [7]: 56%; remaining activity at 50000 µM [7]: 56%; remaining activity at 100000 µM [7]: 55%
N[C@@H](Cc1ccccc1)C(=O)O [phenylalanine] | 31% | 19% | 
O=C(O)[C@@H]1CCCN1 [proline] | 61% | 35% | 
